One experiment has as its target CK1α (Homo sapiens, UniProt P48729+Q96SW2). The experiment in a line: CK1α HiBiT assay in CK1a_HiBiT_Jurkat cells. It is filed as cell-based. Particulars: DC50 class, 16 hours, Nano-Glo HiBiT Lytic Detection, read-out: CK1α degradation classification. Here is the method:
CK1a_HiBiT_Jurkat cells were culture in RPMI 1640 medium (Gibco, 11875093) with 10% FBS under standard tissue culture conditions. Briefly, Compounds of the present disclosure was added to 30,000 cells in a white 96-well plate (9-point dose response, top concentration […], half-log serial dilution, final DMSO concentration 0.5%) and incubated for 16 hours. CK1a level was determined in along with the Nano-Glo HiBiT Lytic Detection system [Promega N3050] with final concentration of 1 x. The luminescence was normalized to that of DMSO-treated samples. DC50 values were obtained using three-parameter non-linear regressions using Prism (GraphPad). The compounds are classified based on DC50 values as follows. • A: DC50 is less than or equal to 1×10^−7; • B: DC50 is greater than 1×10^−7 & less than or equal to 1×10^−6; • C: DC50 is greater than 1×10^−6; • NA: not calculated (no activity detected, <25% viability reduction at 1 uM)

Another experiment has as its system MV-4-11 cells. The experiment in a line: AML cell viability assay (RealTime-Glo). It is filed as cell-based. Particulars: Homo sapiens, MV4-11; IC50 class; MV-4-11 cells, RealTime-Glo after 44 hrs of treatment (TABLE 5); read-out: Cell viability classification.

pIC50: −log10 of the molar value.

Chain of CK1α (P48729 whole entry): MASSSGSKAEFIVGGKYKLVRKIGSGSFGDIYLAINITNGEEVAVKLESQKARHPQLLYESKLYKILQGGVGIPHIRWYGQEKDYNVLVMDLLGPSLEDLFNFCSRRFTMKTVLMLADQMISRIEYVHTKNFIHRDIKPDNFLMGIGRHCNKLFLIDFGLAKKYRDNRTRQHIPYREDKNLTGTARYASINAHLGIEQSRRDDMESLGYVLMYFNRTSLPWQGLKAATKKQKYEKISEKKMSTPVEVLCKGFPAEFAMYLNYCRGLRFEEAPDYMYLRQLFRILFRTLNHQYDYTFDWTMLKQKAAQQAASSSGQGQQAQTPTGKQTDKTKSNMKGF
Chain of CK1α (Q96SW2 whole entry): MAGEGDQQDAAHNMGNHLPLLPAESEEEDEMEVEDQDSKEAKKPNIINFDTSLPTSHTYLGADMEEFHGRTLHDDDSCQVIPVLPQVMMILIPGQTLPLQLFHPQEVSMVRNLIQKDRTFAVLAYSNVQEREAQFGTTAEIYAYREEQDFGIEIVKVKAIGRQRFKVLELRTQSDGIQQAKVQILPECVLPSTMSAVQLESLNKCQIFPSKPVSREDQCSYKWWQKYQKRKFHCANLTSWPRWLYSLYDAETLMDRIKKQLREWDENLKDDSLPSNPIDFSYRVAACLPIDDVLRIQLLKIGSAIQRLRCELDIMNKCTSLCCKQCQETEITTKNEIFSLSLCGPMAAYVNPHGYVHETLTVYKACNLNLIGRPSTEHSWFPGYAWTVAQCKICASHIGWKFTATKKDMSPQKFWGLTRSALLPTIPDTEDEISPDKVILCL
Chain of CK1α (Q16531 whole entry partner): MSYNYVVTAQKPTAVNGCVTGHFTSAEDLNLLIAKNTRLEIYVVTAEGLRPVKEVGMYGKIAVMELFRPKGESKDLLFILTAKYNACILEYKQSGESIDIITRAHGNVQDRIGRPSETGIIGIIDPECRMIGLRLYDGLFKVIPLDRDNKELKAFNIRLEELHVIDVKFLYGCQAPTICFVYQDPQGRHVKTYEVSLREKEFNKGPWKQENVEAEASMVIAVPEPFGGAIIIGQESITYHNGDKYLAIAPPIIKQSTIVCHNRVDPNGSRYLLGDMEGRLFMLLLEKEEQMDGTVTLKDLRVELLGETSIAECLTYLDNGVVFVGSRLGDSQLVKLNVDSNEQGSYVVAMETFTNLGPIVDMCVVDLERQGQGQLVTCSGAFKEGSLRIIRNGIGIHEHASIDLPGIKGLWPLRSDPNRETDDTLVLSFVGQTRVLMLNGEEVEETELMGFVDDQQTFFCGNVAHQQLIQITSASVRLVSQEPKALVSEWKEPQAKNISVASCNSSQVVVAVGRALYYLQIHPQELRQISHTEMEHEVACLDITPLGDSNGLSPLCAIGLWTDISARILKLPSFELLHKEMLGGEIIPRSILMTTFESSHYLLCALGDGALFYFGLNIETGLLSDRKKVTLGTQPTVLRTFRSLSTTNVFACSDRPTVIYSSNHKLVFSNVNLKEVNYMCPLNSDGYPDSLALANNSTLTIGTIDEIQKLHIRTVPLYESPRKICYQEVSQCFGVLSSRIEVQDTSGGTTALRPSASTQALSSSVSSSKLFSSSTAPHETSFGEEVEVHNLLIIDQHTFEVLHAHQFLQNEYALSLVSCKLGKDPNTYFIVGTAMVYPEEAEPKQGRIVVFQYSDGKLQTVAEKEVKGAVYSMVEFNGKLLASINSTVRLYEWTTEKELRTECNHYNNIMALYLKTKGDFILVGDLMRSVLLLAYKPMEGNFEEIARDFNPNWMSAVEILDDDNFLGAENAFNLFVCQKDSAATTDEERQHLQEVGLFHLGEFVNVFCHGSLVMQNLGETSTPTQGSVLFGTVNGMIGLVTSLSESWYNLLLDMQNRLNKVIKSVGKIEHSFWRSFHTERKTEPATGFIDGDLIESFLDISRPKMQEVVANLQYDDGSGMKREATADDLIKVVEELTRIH

As for `CC1(C)CC(CN(c2cccc3c2CN(C2CCC(=O)NC2=O)C3=O)[C@H]2CC[C@H](NCCC(F)(F)F)CC2)C1` (single isomer, unassigned) [Compound 652A, 3-(4-{[(3,3-dimethylcyclobutyl)methyl][(1s,4s)-4-[(3,3,3-trifluoropropyl)amino]cyclohexyl]amino}-1-oxo-3H-isoindol-2-yl)piperidine-2,6-dione; bis(trifluoroacetic acid)], the DC50 on CK1α was above 1 µM. The pIC50 with MV-4-11 cells was below 6.00.
In the case of `O=C1CCC(N2Cc3c(cccc3N(CCC3CC3)[C@H]3CC[C@@H](NCCCC(F)(F)F)CC3)C2=O)C(=O)N1` (some centres unmarked) [Compound 642A], on CK1α, the DC50 is at most 0.1 µM. Further, the pIC50 with MV-4-11 cells is below 6.00.
In the case of `O=C1CCC(N2Cc3c(cccc3N(CCC3CC3)[C@H]3CC[C@H](NCCC(F)F)CC3)C2=O)C(=O)N1` (some centres unmarked) [Compound 643, 3-{4-[(2-cyclopropylethyl)[(1r,4r)-4-[(3,3-difluoropropyl)amino]cyclohexyl]amino]-1-oxo-3H-isoindol-2-yl}piperidine-2,6-dione; trifluoroacetic acid], the DC50 on CK1α is at most 0.1 µM. Besides, the pIC50 with MV-4-11 cells is above 7.00.
Turning to `O=C1CCC(N2Cc3c(cccc3N(CCC3CC3)[C@H]3CC[C@H](NC45CC(C(F)(F)F)(C4)C5)CC3)C2=O)C(=O)N1` (some centres unmarked) [Compound 646, 3-{4-[(2-cyclopropylethyl)[(1r,4r)-4-{[3-(trifluoromethyl)bicyclo[1.1.1]pentan-1-yl]amino}cyclohexyl]amino]-1-oxo-3H-isoindol-2-yl}piperidine-2,6-dione; trifluoroacetic acid], on CK1α, the DC50 was at most 0.1 µM. The pIC50 in the experiment on MV-4-11 cells was 6.00 to 7.00.
In the same order, the values of `O=C1CCC(N2Cc3c(cccc3N(CC3CC(F)(F)C3)[C@H]3CC[C@H](NCCC(F)(F)F)CC3)C2=O)C(=O)N1` (some centres unmarked) [Compound 650, 3-(4-{[(3,3-difluorocyclobutyl)methyl][(1r,4r)-4-[(3,3,3-trifluoropropyl)amino]cyclohexyl]amino}-1-oxo-3H-isoindol-2-yl)piperidine-2,6-dione] are at most 0.1 µM and 6.00 to 7.00.
For the molecule `O=C1CCC(N2Cc3c(cccc3N(CC3CC4(CCC4)C3)[C@H]3CC[C@H](NCCC(F)(F)F)CC3)C2=O)C(=O)N1` (some centres unmarked) [Compound 651, 3-(1-oxo-4-{[(1r,4r)-4-[(3,3,3-trifluoropropyl)amino]cyclohexyl]({spiro[3.3]heptan-2-ylmethyl})amino}-3H-isoindol-2-yl)piperidine-2,6-dione; trifluoroacetic acid], the DC50 on CK1α is at most 0.1 µM. Besides, the pIC50 in the experiment with MV-4-11 cells is below 6.00.
In the same order, the values of `CC1(C)CC(CN(c2cccc3c2CN(C2CCC(=O)NC2=O)C3=O)[C@H]2CC[C@H](NCCC(F)(F)F)CC2)C1` (some centres unmarked) [Compound 652, 3-(4-{[(3,3-dimethylcyclobutyl)methyl][(1r,4r)-4-[(3,3,3-trifluoropropyl)amino]cyclohexyl]amino}-1-oxo-3H-isoindol-2-yl)piperidine-2,6-dione; bis(trifluoroacetic acid)] are at most 0.1 µM and below 6.00.
For the molecule `O=C1CCC(N2Cc3c(cccc3N(CC3CC(F)(F)C3)[C@H]3CC[C@H](NCC4(C(F)(F)F)CC4)CC3)C2=O)C(=O)N1` (some centres unmarked) [Compound 655, 3-(4-{[(3,3-difluorocyclobutyl)methyl][(1r,4r)-4-({[1-(trifluoromethyl)cyclopropyl]methyl}amino)cyclohexyl]amino}-1-oxo-3H-isoindol-2-yl)piperidine-2,6-dione], on CK1α, the DC50 fell in the range of 0.1 to 1 µM. Besides, in the experiment with MV-4-11 cells, the pIC50 was below 6.00.
`O=C1CCC(N2Cc3c(cccc3N(CC3CC4(CCC4)C3)[C@H]3CC[C@H](NCC4(C(F)(F)F)CC4)CC3)C2=O)C(=O)N1` (some centres unmarked) [Compound 656, 3-(1-oxo-4-{[(1r,4r)-4-({[1-(trifluoromethyl)cyclopropyl]methyl}amino)cyclohexyl]({spiro[3.3]heptan-2-ylmethyl})amino}-3H-isoindol-2-yl)piperidine-2,6-dione; trifluoroacetic acid]: the DC50 on CK1α lay within 0.1 to 1 µM. The pIC50 in the experiment on MV-4-11 cells is 6.00 to 7.00.
Regarding `CC1(C)CC(CN(c2cccc3c2CN(C2CCC(=O)NC2=O)C3=O)[C@H]2CC[C@H](NCC3(C(F)(F)F)CC3)CC2)C1` (some centres unmarked) [Compound 657, 3-(4-{[(3,3-dimethylcyclobutyl)methyl][(1r,4r)-4-({[1-(trifluoromethyl)cyclopropyl]methyl}amino)cyclohexyl]amino}-1-oxo-3H-isoindol-2-yl)piperidine-2,6-dione; bis(trifluoroacetic acid)], on CK1α, the DC50 lay within 0.1 to 1 µM. The pIC50 with MV-4-11 cells was below 6.00.
Take `O=C1CCC(N2Cc3c(cc(F)cc3N(CCC3CC3)[C@H]3CC[C@H](NCC4(C(F)(F)F)CC4)CC3)C2=O)C(=O)N1` (some centres unmarked) [Compound 658, 3-{4-[(2-cyclopropylethyl)[(1r,4r)-4-({[1-(trifluoromethyl)cyclopropyl]methyl}amino)cyclohexyl]amino]-6-fluoro-1-oxo-3H-isoindol-2-yl}piperidine-2,6-dione]: the DC50 on CK1α is at most 0.1 µM. Besides, the pIC50 in the experiment with MV-4-11 cells is 6.00 to 7.00.
In the case of `O=C1CCC(N2Cc3c(cc(F)cc3N(CCC3CC3)[C@H]3CC[C@@H](NCC4(C(F)(F)F)CC4)CC3)C2=O)C(=O)N1` (some centres unmarked) [Compound 658A, 3-{4-[(2-cyclopropylethyl)[(1s,4s)-4-({[1-(trifluoromethyl)cyclopropyl]methyl}amino)cyclohexyl]amino]-6-fluoro-1-oxo-3H-isoindol-2-yl}piperidine-2,6-dione], at CK1α, the DC50 was in the range of 0.1 to 1 µM. Also, the pIC50 in the experiment on MV-4-11 cells was below 6.00.
Turning to `NC(=O)C12CC(N(CCC3CC3)c3cccc4c3CN(C3CCC(=O)NC3=O)C4=O)(C1)C2` (centres unmarked) [Compound 659, 3-[(2-cyclopropylethyl)[2-(2,6-dioxopiperidin-3-yl)-1-oxo-3H-isoindol-4-yl]amino]bicyclo[1.1.1]pentane-1-carboxamide], the DC50 at CK1α is at most 0.1 µM. The pIC50 with MV-4-11 cells is 6.00 to 7.00.
The corresponding values for `NCC12CC(N(CCC3CC3)c3cccc4c3CN(C3CCC(=O)NC3=O)C4=O)(C1)C2` (centres unmarked) [Compound 660, 3-(4-{[3-(aminomethyl)bicyclo[1.1.1]pentan-1-yl](2-cyclopropylethyl)amino}-1-oxo-3H-isoindol-2-yl)piperidine-2,6-dione] are at most 0.1 µM and 6.00 to 7.00.
`O=C1CCC(N2Cc3c(cccc3N(CCC3CC3)[C@H]3CC[C@H](NCc4ncco4)CC3)C2=O)C(=O)N1` (some centres unmarked) [Compound 662]: at CK1α, the DC50 is at most 0.1 µM. Also, the pIC50 with MV-4-11 cells is 6.00 to 7.00.
Take `O=C1CCC(N2Cc3c(cccc3N(CCC3CC3)[C@H]3CC[C@H](NCc4nccs4)CC3)C2=O)C(=O)N1` (some centres unmarked) [Compound 663, 3-{4-[(2-cyclopropylethyl)[(1r,4r)-4-[(1,3-thiazol-2-ylmethyl)amino]cyclohexyl]amino]-1-oxo-3H-isoindol-2-yl}piperidine-2,6-dione]: the DC50 at CK1α was at most 0.1 µM. For the same molecule, the pIC50 in the experiment with MV-4-11 cells is 6.00 to 7.00.
The corresponding values for `O=C1CCC(N2Cc3c(cccc3N(CCC3CC3)[C@H]3CC[C@H](NCc4ccc(C(F)(F)F)cn4)CC3)C2=O)C(=O)N1` (some centres unmarked) [Compound 664, 3-{4-[(2-cyclopropylethyl)[(1r,4r)-4-({[5-(trifluoromethyl)pyridin-2-yl]methyl}amino)cyclohexyl]amino]-1-oxo-3H-isoindol-2-yl}piperidine-2,6-dione formic acid] are at most 0.1 µM and 6.00 to 7.00.
As to `O=C1CCC(N2Cc3c(cccc3N(CCC3CC3)[C@H]3CC[C@H](NCc4ccccn4)CC3)C2=O)C(=O)N1` (some centres unmarked) [Compound 665, 3-{4-[(2-cyclopropylethyl)[(1r,4r)-4-[(pyridin-2-ylmethyl)amino]cyclohexyl]amino]-1-oxo-3H-isoindol-2-yl}piperidine-2,6-dione; formic acid], the DC50 on CK1α was at most 0.1 µM. In addition, in the experiment with MV-4-11 cells, the pIC50 was 6.00 to 7.00.
For the molecule `O=C1CCC(N2Cc3c(cccc3N(CCC3CC3)[C@H]3CC[C@@H](N4CCOCC4)CC3)C2=O)C(=O)N1` (some centres unmarked) [Compound 674A, 3-{4-[(2-cyclopropylethyl)[(1s,4s)-4-(morpholin-4-yl)cyclohexyl]amino]-1-oxo-3H-isoindol-2-yl}piperidine-2,6-dione], the DC50 on CK1α was in the range of 0.1 to 1 µM.
As to `O=C1CCC(N2Cc3c(cccc3N(CCC3CC3)[C@H]3CC[C@@H](N[C@H]4CC[C@@H]4C(F)(F)F)CC3)C2=O)C(=O)N1` (stereo partly drawn) [Compound 675A, 3-{4-[(2-cyclopropylethyl)[(1s,4s)-4-{[(1S,2S)-2-(trifluoromethyl)cyclobutyl]amino}cyclohexyl]amino]-1-oxo-3H-isoindol-2-yl}piperidine-2,6-dione; bis(trifluoroacetic acid)], the DC50 on CK1α was in the range of 0.1 to 1 µM.
Same read-out and setting: in the case of `COCCN(C)[C@H]1CC[C@@H](N(CCC2CC2)c2cccc3c2CN(C2CCC(=O)NC2=O)C3=O)CC1` (some centres unmarked) [Compound 680A] it was 0.1 to 1 µM.
For `CN(CCCC(F)(F)F)[C@H]1CC[C@@H](N(CCC2CC2)c2cccc3c2CN(C2CCC(=O)NC2=O)C3=O)CC1` (some centres unmarked) [Compound 681A, 3-{4-[(2-cyclopropylethyl)[(1s,4s)-4-[methyl(4,4,4-trifluorobutyl)amino]cyclohexyl]amino]-1-oxo-3H-isoindol-2-yl}piperidine-2,6-dione], at CK1α, the DC50 is 0.1 to 1 µM.
On to `CN(CCC(F)(F)F)[C@H]1CC[C@@H](N(CCC2CC2)c2cccc3c2CN(C2CCC(=O)NC2=O)C3=O)CC1` (some centres unmarked) [Compound 682A], for which, on CK1α, the DC50 fell in the range of 0.1 to 1 µM.
